In US12642859B2, “Macropinocytosis selective monobody-drug conjugates” (priority 2020, dated 2026):
Square brackets hold non-standard residues; d marks the D form. Peptide text beside a SMILES is read from it. * marks the point of attachment. Dolaproine = CO[C@@H]([C@@H]1CCCN1)[C@@H](C)C(=O)O; Dil = CC[C@H](C)[C@H](NC)[C@@H](CC(=O)O)OC; X1 = C[C@@H](N*)[C@@H](O)c1ccccc1; NMeV = CN[C@H](C(=O)O)C(C)C

Columns and labels:
[1] = system: KMS11 WT Ras, L363 Mutant NRAS, and RPMI 8226 Mutant KRas cells; experiment: Uptake of fluorescently-tagged monobody and MP marker in multiple myeloma cell lines; format: cell-based, human
Text: FIGS. 14A-14C show uptake of fluorescently-tagged monobody and MP marker in human multiple myeloma cancer cell lines. FIGS. 14A and 14B are images showing co-localization of the fluorescently-tagged monobody (red) and MP marker (dextran, green) in KMS11 WT Ras, L363 Mutant NRAS, and RPMI 8226 Mutant KRas cells. DAPI, blue.
The differential uptake was established not only in cell lines of solid tumors, but also in blood cancer such as multiple myeloma. […] Using a similar system to the HeLa KRas^V12 inducible system, we created an inducible KRas^V12 cell system in wild type KRas KMS11 multiple myeloma cells.

[2] = Ex vivo organ toxicity analysis (H&E, apoptotic markers, tubulin staining) of MIA PaCa tumor bearing mice; format: in vivo
Description: FIGS. 5A-5B show the enhanced toxicity of FN-MMAE (monobody) in oncogenic KRas cell lines in vivo. In FIG. 5A, established (100-150 mm^3) subcutaneous MiaPaCa and BxPC3 tumors were treated with, PBS (negative control), 0.2 mg/kg of MMAE alone, or 0.2 mg/kg of FN-MMAE non-binding protein conjugate on Days 0, 7, and 14 (yellow arrows). Tumor growth as assessed by volume was slower in FN-MMAE treated animals compared to MMAE treated alone. n=4 per treatment group. Error bars represent SEM of tumor volume.
FIGS. 6A-6B show ex vivo analysis and mode of action of MMAE.
To test the effects in vivo, a MIA PaCa-2 subcutaneous tumor model was used to compare the efficacy of PBS, MMAE, and FN-MMAE (FIG. 5A). After tumors were established, three injections of 0.2 mg/kg drug with respect to MMAE concentration was administered every 7 days. […] This highlights the specificity of reduced uptake by non-macropinocytic cells in relation to free drug, which contributes to the selective effect of the non-binding FN domain-drug conjugate.

HeLa KRas^V12 cells = experiment: Macropinocytic uptake of fluorescently labeled non-binding FN domain, co-localization with TMR-dextran (doxycycline-inducible system); format: cell-based, human
Text: (§1) FIG. 2A and FIG. 2B show the uptake of the fluorescently-tagged monobody and MP marker in human PDAC MIA PaCa and HeLa or HeLa KRas^V12 cells. Co-localization of the fluorescently-tagged monobody (green) and MP marker (dextran, red) in. DAPI, blue. Boxed region is enlarged, inset.
(§2) To determine if non-binding FN domains could be internalized, a well-established doxycycline-inducible mutant KRas^V12 HeLa cell system (hereafter, HeLa KRas^V12) was used in which macropinocytosis is monitored by high-molecular-weight (70 kDa) tetramethyl-rhodamine labeled (TMR−) dextran.

[3] = system: mutant KRas PDAC cell line MIA PaCa-2; experiment: Macropinocytic uptake, co-localization with dextran; format: cell-based, human
Text: as §1, §2

KPC 1203 cells = experiment: as above; format: cell-based, mouse

| Compound | effect of macropinocytosis inhibitor on FN-Cy5.5 uptake [1] | H&E of ex vivo organs ([2]; MIA PaCa tumor bearing mice) | tubulin staining ([2]; kidneys) | apoptotic marker expression (CC3, HMGB1, cleaved Parp1) ([2]; kidneys, compared to PBS) | effect of macropinocytosis inhibitor on FN domain and dextran uptake (HeLa KRas^V12 cells) | effect of macropinocytosis inhibitor on uptake of dextran and FN-Cy5.5 [3] | effect of macropinocytosis inhibitor on uptake of dextran and FN-Cy5.5 (KPC 1203 cells) |
| --- | --- | --- | --- | --- | --- | --- | --- |
| CC(Sc1nc2ccccc2[nH]1)C(=O)N/N=C/c1cc(Br)ccc1O (centres unmarked) [KH7] | abolished | – | – | – | – | – | – |
| CC[C@H](C)[C@@H]([C@@H](CC(=O)N1CCC[C@H]1[C@H](OC)[C@@H](C)C(=O)N[C@H](C)[C@@H](O)c1ccccc1)OC)N(C)C(=O)[C@@H](NC(=O)[C@@H](NC)C(C)C)C(C)C [MMAE, monomethyl auristatin E] (H-[NMeV]V[Dil][Dolaproine]-X1) | – | visual liver damage | drastically reduced | substantial increase in non-specific toxicity | – | – | – |
| CCN(c1nc(N)c(C(=O)NC(=N)N)nc1Cl)C(C)C [EIPA] | abolished | – | – | – | blocked both non-binding FN domain and dextran uptake | abolished uptake of both macromolecules | abolished uptake of both macromolecules |
